Data reported in patent publication US12397007B2, “Methods of treatment with combinations of cannabidiol and psilocybin” (ECP Pharma, priority 2021, dated 2025).

How the values were obtained:
[1] = test system: rat blast model of TBI; assay: Rat blast model of TBI, light dark box; type: in vivo; details: CBD 5 mg/kg IP, psilocybin 1.5 mg/kg PO from one hour after injury, 7 total doses; vs vehicle; FIG. 2
Source text: This increased time spent in light was not seen with either CBD or psilocybin when dosed separately.

[2] = test system: adult rats exposed to a moderate fluid-percussion pulse over the right parietal cortex; assay: Moderate fluid-percussion TBI, stereological volumetric analyses of contusion and cortical atrophy; type: in vivo, rat; details: approximately 4 weeks after injury; relative to injured vehicle-control animals; FIG. 5 right panel
Description: (§1) Another study was conducted in rats to evaluate the synergy of an oral combination of psilocybin and CBD in mitigating TBI-induced pathology in a preclinical model of TBI. In this study, adult rats were exposed to a moderate fluid-percussion pulse over the right parietal cortex.
(§2) Psilocybin (1.5 mg/kg) and/or CBD (5 mg/kg) in 1 mL of ddH2O (or vehicle/ddH2O alone) was dosed by oral gavage at 1-hour post-injury, and for 1×/day for 6 consecutive days thereafter, resulting in 7 total dosage administrations. Animals receiving psilocybin+CBD were exposed to a traumatic/fearful stimulus (predatory urine) to evaluate anxiety-like behavior. Outcome measurements included sensorimotor (cylinder test), cytoprotection (volumetric analyses of contusion and cortical atrophy), and neuroinflammation (microglia reactivity).

[3] = test system: Iba1+ microglia; assay: Moderate fluid-percussion TBI, immunohistochemical analysis of microglia reactivity; type: in vivo, rat
Description: as §1, §2
Boxes demarcate representative cells in which changes could be compared.

[4] = preliminary quantitative analyses, FIG. 7

Question: C=C(C)[C@@H]1CCC(C)=C[C@H]1c1c(O)cc(CCCCC)cc1O [CBD, Cannabidiol] was tested. Which “stress, time spent in light in the light dark box” value [1] did it give?
Answer: Its value is “not seen”.

Question: And the cortical volume atrophy [2]?
Answer: The cortical volume atrophy was “trended positively towards normalization”.

Question: And the “reactive microglia morphology, CA1” value ([3]; CBD 5 mg/kg alone vs TBI/Vehicle, FIG. 6 bottom row)?
Answer: Its value is “seemed to reduce reactive microglia morphology”.

Question: And the “number of Iba1+ cells, dentate gyrus of ipsilateral hippocampus” value ([3]; CBD 5 mg/kg alone vs controls, FIG. 6 middle row)?
Answer: The value was “significantly greater in number in controls compared to CBD group”.

Question: What about the “Iba1+ cell density, CA1” value ([3]; CBD 5 mg/kg alone vs injured vehicle, FIG. 6 bottom row) of the same compound?
Answer: The value was “no overt differences”.

Question: What about the “injury-induced Iba+ microglia changes” value ([3]; CBD 5 mg/kg alone, FIG. 6) of the same compound?
Answer: Its value is “normalization of injury-induced Iba+microglia changes”.

Question: What about the “density of Iba1+ cells, pericontusional cortex” value ([3]; CBD 5 mg/kg alone, FIG. 6 top row) of the same compound?
Answer: The value was “reduced density of Iba1+ cells”.

Question: And the “activated microglia phenotypes, cortical penumbra” value [3, 4]?
Answer: Its value is “significantly decreased”.

Question: And the “overall microglia numbers, cortical penumbra” value [3, 4]?
Answer: The value was “reduced overall microglia numbers”.
